These results are taken from patent US12643886B2 (Ontario Institute for Cancer Research (OICR), priority 2021, dated 2026).

SMILES strings stand for the structures.

One experiment concerns the target T1, NUAK2 (h) (Homo sapiens, UniProt Q9H093).
T1 construct: This assay was done radiometrically using full-length, recombinant enzyme; purchased Eurofins
T1 sequence (Q9H093 1-628): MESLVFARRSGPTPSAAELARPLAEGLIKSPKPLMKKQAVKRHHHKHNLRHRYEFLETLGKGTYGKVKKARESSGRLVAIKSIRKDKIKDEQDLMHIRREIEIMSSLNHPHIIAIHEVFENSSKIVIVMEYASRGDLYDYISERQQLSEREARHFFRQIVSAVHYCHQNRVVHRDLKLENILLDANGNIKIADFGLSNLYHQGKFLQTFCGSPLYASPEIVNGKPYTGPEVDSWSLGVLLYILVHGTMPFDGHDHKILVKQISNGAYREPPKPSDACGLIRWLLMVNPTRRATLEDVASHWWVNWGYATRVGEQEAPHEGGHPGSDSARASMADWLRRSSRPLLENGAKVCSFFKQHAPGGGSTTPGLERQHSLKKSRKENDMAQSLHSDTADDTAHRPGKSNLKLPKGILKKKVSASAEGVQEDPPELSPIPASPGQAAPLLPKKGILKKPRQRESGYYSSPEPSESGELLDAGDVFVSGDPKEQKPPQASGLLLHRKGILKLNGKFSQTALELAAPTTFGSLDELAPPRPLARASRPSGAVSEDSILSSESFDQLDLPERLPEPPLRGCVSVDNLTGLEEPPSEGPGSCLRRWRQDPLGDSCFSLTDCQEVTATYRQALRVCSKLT
Description: NUAK2 enzymatic assay (radiometric, Eurofins). The format is biochemical. The note with it: full-length recombinant enzyme. In short, it runs like this:
(§1)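 Full-length recombinant NUAK2 incubated 40 min at room temperature in 8 mM MOPS pH 7.0, 0.2 mM EDTA, 10 mM magnesium acetate, 300 μM peptide substrate and 33P-ATP. Stopped with 0.5% phosphoric acid; filter-bound label counted by scintillation. IC50 reported as ranges; NUAK1 and Aurora A served as counter-screens.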

Another experiment addresses T2, NUAK1 (Homo sapiens, UniProt O60285).
T2 sequence (O60285 1-661): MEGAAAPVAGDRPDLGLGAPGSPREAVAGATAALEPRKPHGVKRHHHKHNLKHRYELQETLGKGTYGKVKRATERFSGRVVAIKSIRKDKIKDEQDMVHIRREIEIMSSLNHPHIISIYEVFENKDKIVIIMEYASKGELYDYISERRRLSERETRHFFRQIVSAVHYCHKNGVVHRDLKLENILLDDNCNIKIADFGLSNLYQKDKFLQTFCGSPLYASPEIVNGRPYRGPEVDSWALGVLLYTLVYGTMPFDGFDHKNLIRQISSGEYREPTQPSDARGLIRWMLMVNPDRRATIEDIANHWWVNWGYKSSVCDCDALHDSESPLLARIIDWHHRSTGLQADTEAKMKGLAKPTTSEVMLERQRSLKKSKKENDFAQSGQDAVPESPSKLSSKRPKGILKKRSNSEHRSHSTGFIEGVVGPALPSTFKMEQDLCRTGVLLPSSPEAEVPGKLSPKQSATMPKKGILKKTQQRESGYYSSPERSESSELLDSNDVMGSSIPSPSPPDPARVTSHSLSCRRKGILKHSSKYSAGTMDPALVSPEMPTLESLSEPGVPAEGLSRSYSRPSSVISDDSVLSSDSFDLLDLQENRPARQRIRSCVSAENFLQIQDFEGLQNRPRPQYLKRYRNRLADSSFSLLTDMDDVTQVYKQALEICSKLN
Description: Counter-screen against NUAK1. In kind it is biochemical. In short, it runs like this: as §1

The target of another experiment is T3, Aurora A (Homo sapiens, UniProt O14965).
T3 sequence (O14965 1-403): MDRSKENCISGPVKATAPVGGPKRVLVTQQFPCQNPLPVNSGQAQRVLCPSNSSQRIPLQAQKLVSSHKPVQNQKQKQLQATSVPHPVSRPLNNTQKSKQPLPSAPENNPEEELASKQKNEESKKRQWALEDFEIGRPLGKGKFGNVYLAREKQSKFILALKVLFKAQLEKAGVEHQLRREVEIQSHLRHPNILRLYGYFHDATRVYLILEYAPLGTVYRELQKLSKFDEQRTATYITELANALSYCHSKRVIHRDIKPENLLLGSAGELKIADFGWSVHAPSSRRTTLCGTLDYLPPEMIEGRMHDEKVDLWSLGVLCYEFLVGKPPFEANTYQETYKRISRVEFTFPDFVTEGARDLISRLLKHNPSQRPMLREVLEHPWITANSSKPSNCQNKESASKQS
In words: Counter-screen against Aurora A. In kind it is biochemical. The note with it: read-out: AUR-A (IC50). In short, it runs like this: as §1
For orientation: The purpose of a counterscreen is to sort out artefacts and off-target activity.

Experiment [1] relates to Clover-YAP expressing MDA-MB-231 cells. In words: Cell-based YAP/TAZ localization assay (live imaging of Clover-YAP). The note with it: MDA-MB-231 breast cancer cell line, FIG. 1. As for the experimental part:
Compounds of the application were tested for their ability to inhibit localization of YAP/TAZ to the nucleus of cells using an assay generally described in Nature Communications, 2018, 9:3510. Live cell imaging of Clover-YAP expressing MDA-MB-231 cells was carried out using a custom WAVE-FX-X1 spinning disc confocal system (Quorum Technologies) with a modified Yokogawa CSU-X1 scanhead on an AxioObserver Z1 inverted microscope (Carl Zeiss) with a ×40 NA 1.2 Plan Apochromat (Carl Zeiss) objective. Cells were plated in a 35 mm glass-bottom dish (Mat-Tek, P35G-1.5-14-C) and were maintained in a stage-top incubator at 37° C. and 5% CO2 during imaging. Cells were cultured in phenol-red free RPMI medium (Thermo Fisher Scientific, 11835030) with 5% FBS and 200 nM SiR-DNA (Spirochrom, SC007) was added 1 h prior to imaging to visualize the nuclei. Localization of Clover-YAP was monitored every 10 min for 2 h. Volocity software was used for image acquisition and processing.

A further experiment has as its system MDA-MB-231 cells. In words: Tumor cell growth inhibition assay (ATPlite, 5 days). The format is cell-based. Particulars: Homo sapiens, 120 h; breast tumor cell line MDA-MB-231, 5 days. Here is the method: MDA-MB-231 cells were seeded into a 384-well plate at 1,000 cells/well in 50 μl medium (Alpha-MEM containing 10% FBS, […] Normocin, Invivogen and […] Gentamycin, Invitrogen). Plates were then incubated overnight for the cells to attach. An HP D300 digital dispenser was used to dose cells with DMSO or test compounds across a 16-point range of concentrations (high dose of 10 uM to low dose of 5 nM). Plates were incubated in a humidified 5% CO2 incubator at 37° C. After 5 days, plates were removed from the incubator and equilibrated to room temperature. An equal volume of ATPlite assay reagent was then added to each well, and samples processed according to manufacturer's instructions (Perkin Elmer). Luminescent signals were then measured using an Envision plate reader equipped with a US-Luminescence detector.
A general note: In ATP-based viability assays light output follows the ATP content of the culture.

For experiment [2], the system named is several cancer cell lines. Particulars: immunofluorescence; cited from earlier work.
Experiment [3] deals with several cancer cell lines. The note with it: PCR; cited from earlier work.

The term IC50 denotes the concentration at which inhibition is half-maximal. Consider `O=C1NCc2cccc(Nc3nc(Nc4ccc(N5CCNCC5)cc4OC(F)F)ncc3C(F)(F)F)c21` [Compound I-34, 7-((2-((2-(difluoromethoxy)-4-(piperazin-1-yl)phenyl)amino)-5-(trifluoromethyl)pyrimidin-4-yl)amino)isoindolin-1-one], for which the IC50 was 11 to 100 nM on NUAK2 (h), 11 to 100 nM at NUAK1, more than 1000 nM at Aurora A and 32 nM in the experiment with MDA-MB-231 cells. Further, the “Inhibition of nuclear localization of YAP/TAZ” value in experiment [1] is “potently inhibit nuclear localization of YAP/TAZ”.
In the case of `O=C1NCc2cccc(Nc3nc(Nc4ccc(N5C[C@@H]6C[C@H]5CN6)cc4OC(F)F)ncc3C(F)(F)F)c21` [Compound I-54, 7-((2-((4-((1S,4S)-2,5-diazabicyclo[2.2.1]heptan-2-yl)-2-(difluoromethoxy)phenyl)amino)-5-(trifluoromethyl)pyrimidin-4-yl)amino)isoindolin-1-one], the IC50 on NUAK2 (h) is 0.1 to 10 nM; at NUAK1, 11 to 100 nM; at Aurora A, more than 1000 nM; with MDA-MB-231 cells it was 48 nM.
`O=C1NCc2cccc(Nc3nc(Nc4ccc(N5C[C@H]6CNC[C@H]6C5)cc4OC(F)F)ncc3C(F)(F)F)c21` [Compound I-56, 7-((2-((2-(difluoromethoxy)-4-((3aR,6aS)-hexahydropyrrolo[3,4-c]pyrrol-2(1H)-yl)phenyl)amino)-5-(trifluoromethyl)pyrimidin-4-yl)amino)isoindolin-1-one]: the 50% inhibitory concentration (IC50) on NUAK2 (h) is 11 to 100 nM; at NUAK1, 11 to 100 nM; at Aurora A, 101 to 1000 nM; in the experiment with MDA-MB-231 cells it was 43 nM.
With `O=C1NCc2cccc(Nc3nc(Nc4ccc(N5C[C@H]6CC[C@@H](C5)N6)cc4OC(F)F)ncc3C(F)(F)F)c21` [Compound I-59, 7-((2-((4-((1R,5S)-3,8-diazabicyclo[3.2.1]octan-3-yl)-2-(difluoromethoxy)phenyl)amino)-5-(trifluoromethyl)pyrimidin-4-yl)amino)isoindolin-1-one], the IC50 is 0.1 to 10 nM at NUAK2 (h), 11 to 100 nM at NUAK1, 101 to 1000 nM on Aurora A and 54 nM in the experiment with MDA-MB-231 cells.
Turning to `COc1cc(CN(C)C)ccc1Nc1ncc(Cl)c(Nc2cccc3c2C(=O)NC3)n1` [Compound I-63, 7-((5-chloro-2-((4-((dimethylamino)methyl)-2-methoxyphenyl)amino)pyrimidin-4-yl)amino)isoindolin-1-one], the IC50 was 0.1 to 10 nM at NUAK2 (h), 11 to 100 nM at NUAK1, 101 to 1000 nM on Aurora A and 398 nM in the experiment with MDA-MB-231 cells.
For the compound `CN1CCN(c2ccc(Nc3ncc4cc(C#N)c(=O)n(C5CCCC5)c4n3)cc2)CC1` [ON123300], the YAP/TAZ nuclear localization entry in experiment [2] is “a block of YAP/TAZ nuclear localization”. Further, the “YAP/TAZ transcriptional function (target gene expression)” value in experiment [3] was “attenuates transcriptional function”.
For the compound `CCC(=O)Nc1cccc(Oc2nc(Nc3ccc(N4CCN(C)CC4)cc3OC)ncc2Cl)c1` [WZ4003], in experiment [2], the YAP/TAZ nuclear localization result is on record as “a block of YAP/TAZ nuclear localization”. Moreover, in experiment [3], the “YAP/TAZ transcriptional function (target gene expression)” value is “attenuates transcriptional function”.
